{"source": "ChEMBL document CHEMBL3352665", "about": "“Trends in research of antitrypanosomal agents among synthetic heterocycles” (Eur J Med Chem, 2014)", "key": {"[1]": {"assay": "Inhibition of Trypanosoma brucei PTR1", "conditions": "read-out: Ki(app)"}, "Cruzipain": {"biological_target": "Cruzipain (Trypanosoma cruzi, UniProt P25779)", "sequence (P25779 whole entry)": "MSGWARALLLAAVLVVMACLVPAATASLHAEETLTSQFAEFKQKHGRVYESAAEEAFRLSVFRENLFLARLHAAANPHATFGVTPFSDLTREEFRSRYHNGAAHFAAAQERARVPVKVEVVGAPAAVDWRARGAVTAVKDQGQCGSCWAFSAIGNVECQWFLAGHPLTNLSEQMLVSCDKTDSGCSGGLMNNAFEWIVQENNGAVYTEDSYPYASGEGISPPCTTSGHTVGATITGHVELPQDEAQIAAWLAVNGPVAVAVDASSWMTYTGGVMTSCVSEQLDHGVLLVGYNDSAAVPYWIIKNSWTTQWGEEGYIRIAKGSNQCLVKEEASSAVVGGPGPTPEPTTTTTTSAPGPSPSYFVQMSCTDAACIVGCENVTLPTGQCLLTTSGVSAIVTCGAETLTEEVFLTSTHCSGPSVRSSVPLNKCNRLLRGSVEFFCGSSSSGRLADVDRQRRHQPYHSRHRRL", "assay": "Inhibition of Trypanosoma cruzi cruzain"}, "Trypanosoma cruzi [2]": {"test_system": "Trypanosoma cruzi", "assay": "Antitrypanosomal activity against Trypanosoma cruzi assessed as growth inhibition", "assay_type": "functional", "conditions": "read-out: ED50 (the source's name)"}, "Trypanosoma brucei [3]": {"test_system": "Trypanosoma brucei", "assay": "Antitrypanosomal activity against Trypanosoma brucei assessed as growth inhibition", "assay_type": "functional, organism-based"}, "[4]": {"assay": "Selectivity ratio for human triosephosphate isomerase to Trypanosoma cruzi triosephosphate isomerase"}, "Trypanosoma brucei [5]": {"test_system": "Trypanosoma brucei", "assay": "Inhibition of Trypanosoma brucei triosephosphate isomerase at 50 uM"}, "[6]": {"biological_target": "Triosephosphate isomerase, glycosomal (Trypanosoma cruzi) (UniProt P52270)", "sequence (P52270 whole entry)": "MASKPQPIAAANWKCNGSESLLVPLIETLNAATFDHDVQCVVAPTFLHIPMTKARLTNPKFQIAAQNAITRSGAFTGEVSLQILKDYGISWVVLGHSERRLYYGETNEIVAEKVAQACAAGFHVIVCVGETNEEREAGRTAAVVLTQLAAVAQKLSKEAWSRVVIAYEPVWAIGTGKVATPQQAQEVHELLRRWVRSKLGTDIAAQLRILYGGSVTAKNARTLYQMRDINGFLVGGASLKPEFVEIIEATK", "assay": "Inhibition of Trypanosoma cruzi triosephosphate isomerase at 50 uM"}, "Trypanosoma brucei [7]": {"test_system": "Trypanosoma brucei", "assay": "Antitrypanosomal activity against bloodstream forms of Trypanosoma brucei assessed as growth inhibition", "assay_type": "functional, organism-based"}, "[8]": {"test_system": "Trypanosoma brucei rhodesiense", "assay": "Antitrypanosomal activity against Trypanosoma brucei rhodesiense assessed as growth inhibition", "assay_type": "functional", "conditions": "read-out: ED50 (the source's name)"}, "Trypanosoma cruzi [9]": {"test_system": "Trypanosoma cruzi", "assay": "Antitrypanosomal activity against epimastigote forms of Trypanosoma cruzi Y assessed as growth inhibition", "assay_type": "functional, organism-based"}}, "data": [{"smiles": "Nc1nc2cccc(-c3ccccc3)c2n1Cc1ccc(Cl)c(Cl)c1", "values": [{"measurement": "Ki", "setting": "[1]", "value": 7, "unit": "nM"}]}, {"smiles": "Cc1ccc(SCC/C=N/NC2=NC(=O)C(C)S2)cc1", "note": "(configuration not stated)", "values": [{"measurement": "IC50", "setting": "Cruzipain", "value": 20400, "unit": "nM"}]}, {"smiles": "CCCC/C(=N\\NC(N)=S)c1ccccc1", "values": [{"measurement": "EC50", "setting": "Trypanosoma cruzi [2]", "value": 3000, "unit": "nM"}]}, {"smiles": "COc1ccccc1C(=O)c1cnc(NC2CCN(C(=O)Nc3ccccc3)CC2)nc1N", "values": [{"measurement": "IC50", "setting": "Trypanosoma brucei [3]", "value": 70, "unit": "nM"}]}, {"smiles": "Cc1ccc2nc(-c3ccc(N)cc3)sc2c1", "values": [{"measurement": "Selectivity ratio", "setting": "[4]", "value": 200}]}, {"smiles": "Nc1ccc(-c2nc3ccc(-c4ccc5nc(N)sc5c4)cc3s2)cc1", "values": [{"measurement": "inhibition", "setting": "Trypanosoma brucei [5]", "value": "> 90", "unit": "%"}, {"measurement": "inhibition", "setting": "[6]", "value": "> 90", "unit": "%"}]}, {"smiles": "CCCOc1cccc2nc(N)n(Cc3ccc(Cl)c(Cl)c3)c12", "values": [{"measurement": "Ki", "setting": "[1]", "value": 47, "unit": "nM"}, {"measurement": "EC50", "setting": "Trypanosoma brucei [7]", "value": 10000, "unit": "nM"}]}, {"smiles": "NC(=S)N/N=C(\\C=C\\c1ccccc1)c1ccccc1", "values": [{"measurement": "EC50", "setting": "[8]", "value": 70, "unit": "nM"}]}, {"smiles": "CCC1SC(N/N=C/CCSc2ccccc2)=NC1=O", "note": "(configuration not stated)", "values": [{"measurement": "IC50", "setting": "Trypanosoma cruzi [9]", "value": 300, "unit": "nM"}]}, {"smiles": "CC1SC(N/N=C/CCCSc2ccccc2)=NC1=O", "note": "(configuration not stated)", "values": [{"measurement": "IC50", "setting": "Cruzipain", "value": 400, "unit": "nM"}]}]}
